“And” between values parts separate entries of the source, which are not always exact repeats. Equal values may be shown once. Toxic doses and inconclusive results are not listed.

The test system of the assay is CD2F1 mice, L1210 leukemia ip, survival T/C. Kind of assay: NCI In Vivo Anticancer Drug Screen. Data for tumor model L1210 Leukemia (intraperitoneal) in CD2F1 (CDF1) mice. Conditions: higher = longer survival. A digest of the protocol:
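Activity against a transplanted murine tumor was judged by comparing the compound group with a vehicle group. The outcome in the treated animals was divided by that in the controls.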

Setting [1] is: endpoint: mean survival time, dose: 100.0 mg/kg/injection, schedule: Q04DX003 (ip), vehicle: saline with Tween-80.
Setting [2] is: endpoint: mean survival time, dose: 200.0 mg/kg/injection, schedule: Q04DX003 (ip), vehicle: saline with Tween-80.
Setting [3] is: endpoint: mean survival time, dose: 400.0 mg/kg/injection, schedule: Q04DX003 (ip), vehicle: saline with Tween-80.
Where [4] appears, read: endpoint: mean survival time, dose: 100.0 mg/kg/injection, schedule: Q01DX009 (ip), vehicle: saline with Tween-80.
Where [5] appears, read: endpoint: mean survival time, dose: 200.0 mg/kg/injection, schedule: Q01DX009 (ip), vehicle: saline with Tween-80.
Setting [6] is: endpoint: mean survival time, dose: 100.0 mg/kg/injection, schedule: Q01DX001 (ip), vehicle: saline with Tween-80.
The mark [7] stands for this setting: endpoint: mean survival time, dose: 200.0 mg/kg/injection, schedule: Q01DX001 (ip), vehicle: saline with Tween-80.
Where [8] appears, read: endpoint: mean survival time, dose: 400.0 mg/kg/injection, schedule: Q01DX001 (ip), vehicle: saline with Tween-80.
[9] abbreviates: endpoint: mean survival time, dose: 50.0 mg/kg/injection, schedule: Q01DX009 (ip), vehicle: saline with Tween-80.
The mark [10] stands for this setting: endpoint: mean survival time, dose: 100.0 mg/kg/injection, schedule: Q01DX001 (ip), vehicle: Klucel (hydroxypropylcellulose) (HPC).
Where [11] appears, read: endpoint: mean survival time, dose: 12.5 mg/kg/injection, schedule: Q01DX009 (ip), vehicle: saline with Tween-80.
The mark [12] stands for this setting: endpoint: mean survival time, dose: 25.0 mg/kg/injection, schedule: Q01DX009 (ip), vehicle: saline with Tween-80.

As for `O=C(OCC1OCOC(COC(=O)c2ccccc2)C(O)C1O)c1ccccc1` (centres undefined), the T/C runs as follows: under setting [1], 97 % of control; under setting [2], 97 % of control; under setting [3], 86 % of control.
For the compound `Cc1ccc(NC(=O)Nc2ccccc2C(N)=O)cc1`, the T/C is 97 % of control (endpoint: mean survival time, dose: 100.0 mg/kg/injection, schedule: Q01DX009 (ip), vehicle: saline sonified); 98 % of control (endpoint: mean survival time, dose: 200.0 mg/kg/injection, schedule: Q01DX009 (ip), vehicle: saline sonified); 100 % of control (endpoint: mean survival time, dose: 400.0 mg/kg/injection, schedule: Q01DX009 (ip), vehicle: saline sonified).
`COc1cc2nncc(Sc3cnnc4ccccc34)c2cc1OC`: the T/C by setting is: (endpoint: mean survival time, dose: 100.0 mg/kg/injection, schedule: Q01DX001 (ip), vehicle: other) 92 % of control; (endpoint: mean survival time, dose: 200.0 mg/kg/injection, schedule: Q01DX001 (ip), vehicle: other) 86 % of control; (endpoint: mean survival time, dose: 400.0 mg/kg/injection, schedule: Q01DX001 (ip), vehicle: other) 92 % of control.
`CC(=O)OC1CCC2(C)C(=C(C)CC3C2CCC2(C)C(C(C)=O)CCC32)C1` (centres undefined): the T/C was 98 % of control under setting [4]; 95 % of control under setting [5]; 97 % of control (endpoint: mean survival time, dose: 400.0 mg/kg/injection, schedule: Q01DX009 (ip), vehicle: saline with Tween-80).
Consider `CCOC(=O)c1sc(C(=O)OCC)c(-c2ccccc2)c1-c1ccccc1`, for which the T/C is, setting by setting: under setting [6], 108 % of control; under setting [7], 93 % of control; under setting [8], 96 % of control.
For `O/N=C(/CC(O)(c1ccccc1)c1ccccc1)c1ccccc1`, the T/C is 98 % of control (endpoint: mean survival time, dose: 75.0 mg/kg/injection, schedule: Q01DX001 (ip), vehicle: saline); 103 % of control (endpoint: mean survival time, dose: 150.0 mg/kg/injection, schedule: Q01DX001 (ip), vehicle: saline); 95 % of control (endpoint: mean survival time, dose: 300.0 mg/kg/injection, schedule: Q01DX001 (ip), vehicle: saline).
With `O=C1CN(c2ccc3ccccc3c2)NO1`, the T/C by setting is: under setting [1], 93 % of control; under setting [2], 93 % of control.
As for `c1ccc(C[n+]2cccc3ccccc32)cc1`, the T/C reads like this: (endpoint: mean survival time, dose: 5.0 mg/kg/injection, schedule: Q04DX003 (ip), vehicle: saline with Tween-80) 101 % of control; (endpoint: mean survival time, dose: 10.0 mg/kg/injection, schedule: Q04DX003 (ip), vehicle: saline with Tween-80) 98 % of control; (endpoint: mean survival time, dose: 20.0 mg/kg/injection, schedule: Q04DX003 (ip), vehicle: saline with Tween-80) 98 % of control.
With `O=C(Nc1cccc(O)c1)OCCCCl`, the T/C was 98 % of control under setting [1], 98 % of control under setting [2] and 96 % of control under setting [3].
As to `CC(=O)OCc1ccc(Cl)cc1`, the T/C reads like this: under setting [1], 94 % of control; under setting [2], 96 % of control; under setting [3], 96 % of control.
For `CC(=O)OCC1(OC2OC(CNC(=O)N(C)N=O)C(OC(C)=O)C(OC(C)=O)C2OC(C)=O)OC(CNC(=O)N(C)N=O)C(OC(C)=O)C1OC(C)=O` (centres undefined), the T/C reads like this: (endpoint: mean survival time, dose: 12.5 mg/kg/injection, schedule: Q01DX009 (ip), vehicle: other) 102 % of control; (endpoint: mean survival time, dose: 25.0 mg/kg/injection, schedule: Q01DX009 (ip), vehicle: other) 102 % of control; (endpoint: mean survival time, dose: 50.0 mg/kg/injection, schedule: Q01DX009 (ip), vehicle: other) 109 % of control; (endpoint: mean survival time, dose: 100.0 mg/kg/injection, schedule: Q01DX009 (ip), vehicle: other) 105 % of control; (endpoint: mean survival time, dose: 200.0 mg/kg/injection, schedule: Q01DX009 (ip), vehicle: other) 119 % of control.
As to `CNC=O`, the T/C (endpoint: mean survival time, dose: 100.0 mg/kg/injection, schedule: Q01DX009 (ip), vehicle: saline) was 103 % of control and 111 % of control; the T/C (endpoint: mean survival time, dose: 200.0 mg/kg/injection, schedule: Q01DX009 (ip), vehicle: saline) is 112 % of control; the T/C (endpoint: mean survival time, dose: 800.0 mg/kg/injection, schedule: Q01DX009 (ip), vehicle: saline) is 164 % of control.
On to `c1ccc2c(c1)Cc1c-2nc2ccccc2c1N1CCOCC1`, for which the T/C runs as follows: under setting [6], 94 % of control; under setting [4], 97 % of control; under setting [7], 100 % of control; under setting [5], 106 % of control; under setting [8], 92 % of control.
As to `[O-][n+]1ccccc1F`, the T/C (endpoint: mean survival time, dose: 100.0 mg/kg/injection, schedule: Q01DX001 (ip), vehicle: saline) was 104 % of control.
Consider `C=CCN(CC=C)CC=C`, for which the T/C is 95 % of control (endpoint: mean survival time, dose: 100.0 mg/kg/injection, schedule: Q04DX003 (ip), vehicle: saline); 97 % of control (endpoint: mean survival time, dose: 200.0 mg/kg/injection, schedule: Q04DX003 (ip), vehicle: saline); 93 % of control (endpoint: mean survival time, dose: 400.0 mg/kg/injection, schedule: Q04DX003 (ip), vehicle: saline).
Take `Cc1ccc(NC(=O)OCCOc2ccc([N+](=O)[O-])cc2)cc1C`: the T/C was 108 % of control under setting [9], 92 % of control under setting [4] and 92 % of control under setting [5].
Turning to `CC1SC(=S)N(c2ccccc2)C1=O` (centres undefined), the T/C was 112 % of control under setting [1], 97 % of control under setting [2] and 101 % of control under setting [3].
`CCC1(C)CCC2C(=CCC3C(C)(C(=O)OC)CCCC23C)C1` (centres undefined): the T/C is 94 % of control under setting [6], 92 % of control under setting [7] and 94 % of control under setting [8].
As to `Cc1ccc(NNC(N)=O)cc1`, the T/C is, setting by setting: (endpoint: mean survival time, dose: 25.0 mg/kg/injection, schedule: Q01DX001 (ip), vehicle: Klucel (hydroxypropylcellulose) (HPC)) 104 % of control; (endpoint: mean survival time, dose: 50.0 mg/kg/injection, schedule: Q01DX001 (ip), vehicle: Klucel (hydroxypropylcellulose) (HPC)) 93 % of control; under setting [10], 89 % of control.
Consider `O=C([O][Bi]([c]1ccccc1)[c]1ccccc1)c1ccccc1`, for which the T/C reads like this: (endpoint: median survival time, dose: 6.25 mg/kg/injection, schedule: Q01DX009 (ip), vehicle: Klucel (hydroxypropylcellulose) (HPC)) 97 % of control; (endpoint: median survival time, dose: 12.5 mg/kg/injection, schedule: Q01DX009 (ip), vehicle: Klucel (hydroxypropylcellulose) (HPC)) 95 % of control; (endpoint: median survival time, dose: 25.0 mg/kg/injection, schedule: Q01DX009 (ip), vehicle: Klucel (hydroxypropylcellulose) (HPC)) 101 % of control.
With `COc1nc2c(N)ncnc2n1C1OC(CO)C(O)C1O` (centres undefined), the T/C by setting is: (endpoint: mean survival time, dose: 100.0 mg/kg/injection, schedule: Q04DX002 (ip), vehicle: saline with Tween-80) 103 % of control; (endpoint: mean survival time, dose: 200.0 mg/kg/injection, schedule: Q04DX002 (ip), vehicle: saline with Tween-80) 103 % of control; (endpoint: mean survival time, dose: 400.0 mg/kg/injection, schedule: Q04DX002 (ip), vehicle: saline with Tween-80) 96 % of control.
On to `CCC(C)(C)OC(=O)Nc1ccc(C)c(NC(=O)OC(C)(C)CC)c1`, for which the T/C by setting is: (endpoint: mean survival time, dose: 75.0 mg/kg/injection, schedule: Q01DX001 (ip), vehicle: other) 86 % of control; (endpoint: mean survival time, dose: 150.0 mg/kg/injection, schedule: Q01DX001 (ip), vehicle: other) 86 % of control; (endpoint: mean survival time, dose: 300.0 mg/kg/injection, schedule: Q01DX001 (ip), vehicle: other) 90 % of control.
Consider `Clc1ccccc1/C=C1\c2ccccc2-c2nc3ccccc3nc21`, for which the T/C under setting [1] is 109 % of control, the T/C under setting [2] was 103 % of control and the T/C under setting [3] is 97 % of control.
With `Cc1ccc(Cl)c(I)c1`, the T/C by setting is: under setting [10], 101 % of control; (endpoint: mean survival time, dose: 200.0 mg/kg/injection, schedule: Q01DX001 (ip), vehicle: Klucel (hydroxypropylcellulose) (HPC)) 103 % of control; (endpoint: mean survival time, dose: 400.0 mg/kg/injection, schedule: Q01DX001 (ip), vehicle: Klucel (hydroxypropylcellulose) (HPC)) 106 % of control.
For `CC(C(O)c1ccc(Br)cc1)C(O)(C(F)(F)F)C(F)(F)F` (centres undefined), the T/C is 113 % of control (endpoint: mean survival time, dose: 100.0 mg/kg/injection, schedule: Q04DX003 (ip), vehicle: other); 107 % of control (endpoint: mean survival time, dose: 200.0 mg/kg/injection, schedule: Q04DX003 (ip), vehicle: other); 100 % of control (endpoint: mean survival time, dose: 400.0 mg/kg/injection, schedule: Q04DX003 (ip), vehicle: other).
For the compound `O=C1CN(Cc2ccc3c(c2)OCO3)NO1`, the T/C runs as follows: (endpoint: mean survival time, dose: 6.25 mg/kg/injection, schedule: Q01DX009 (ip), vehicle: saline with Tween-80) 98 % of control and 101 % of control; under setting [11], 98 % of control; under setting [12], 102 % of control and 109 % of control; under setting [9], 113 % of control; under setting [4], 120 % of control and 104 % of control.
Turning to `COc1ccc2c(O)c(Cc3ccccc3)c(=O)oc2c1`, the T/C by setting is: under setting [9], 112 % of control; under setting [4], 103 % of control; under setting [5], 103 % of control.
With `N#C/C(=C\c1ccc(-c2ccccc2)cc1)c1ccc(Cl)cc1`, the T/C under setting [2] was 87 % of control.
With `Cn1nc(-c2ccccc2)nc1[N+](=O)[O-]`, the T/C runs as follows: under setting [11], 90 % of control and 103 % of control; under setting [12], 97 % of control; under setting [9], 103 % of control and 106 % of control; under setting [4], 121 % of control and 100 % of control.
